Data published in US12077503B2, “Substituted cyclic amides and their use as herbicides” (FMC CORPORATION, priority 2015, dated 2024).

Assays:
Assay type in all cases: in vivo
[1] = test system: Kochia (Kochia scoparia); assay: Test A postemergence; details: postemergence, 0 to 100 scale (0 no effect, 100 complete control)
Outline: (§1)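 Seeded soil received test chemicals as a preemergence directed spray, and seedlings at one to two leaves, 2–10 cm tall, received them postemergence, in a non-phytotoxic, surfactant-containing solvent mixture. Pots were held in a greenhouse for approximately 10 d, then rated for injury from 0, no effect, to 100, complete control.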

[2] = test system: wheat (Triticum aestivum); assay: Test A postemergence; details: postemergence, 0 to 100 scale (0 no effect, 100 complete control)
Outline: as §1

[3] = test system: giant foxtail (Setaria faberii); assay: Test A postemergence; details: postemergence, 0 to 100 scale (0 no effect, 100 complete control)
Outline: as §1

[4] = test system: ryegrass, Italian (Italian ryegrass, Lolium multiflorum); assay: Test A postemergence; details: postemergence, 0 to 100 scale (0 no effect, 100 complete control)
Outline: as §1

[5] = test system: barnyardgrass (Echinochloa crus-galli); assay: Test A postemergence
Outline: as §1

[6] = test system: blackgrass (Alopecurus myosuroides); assay: Test A postemergence
Outline: as §1

[7] = test system: pigweed (Amaranthus retroflexus); assay: Test A postemergence; details: postemergence, 0 to 100 scale (0 no effect, 100 complete control)
Outline: as §1

[8] = test system: Galium (catchweed bedstraw, Galium aparine); assay: Test A postemergence; details: postemergence, 0 to 100 scale (0 no effect, 100 complete control)
Outline: as §1

[9] = test system: ragweed (common ragweed, Ambrosia elatior); assay: Test A postemergence; details: postemergence, 0 to 100 scale (0 no effect, 100 complete control)
Outline: as §1

[10] = test system: corn (Zea mays); assay: Test A postemergence
Outline: as §1

[11] = test system: ducksalad (Heteranthera limosa); assay: Test B flooded paddy test; details: Flood, 250 g ai/ha; 0 to 100 scale where 0 is no effect and 100 is complete control; 13 to 15 d
Outline: (§2)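 Evaluation by eye, against controls, occurred 13–15 d post-treatment in a greenhouse, using a 0 (no effect) to 100 (complete control) scale. Application was into the paddy water, 3 cm deep over the soil, on 2-leaf plants.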

[12] = test system: barnyardgrass (Echinochloa crus-galli); assay: Test B flooded paddy test; details: Flood, 250 g ai/ha; 0 to 100 scale where 0 is no effect and 100 is complete control; 13 to 15 d
Outline: as §2

[13] = test system: rice (Oryra sativa); assay: Test B flooded paddy test; details: Flood, 250 g ai/ha; 0 to 100 scale where 0 is no effect and 100 is complete control; 13 to 15 d
Outline: as §2

[14] = test system: sedge, umbrella (small-flower umbrella sedge, Cyperus difformis); assay: Test B flooded paddy test; details: Flood, 250 g ai/ha; 0 to 100 scale where 0 is no effect and 100 is complete control; 13 to 15 d
Outline: as §2

[15] = test system: Kochia (Kochia scoparia); assay: Test A preemergence
Outline: as §1

[16] = test system: giant foxtail (Setaria faberii); assay: Test A preemergence
Outline: as §1

[17] = test system: ryegrass, Italian (Italian ryegrass, Lolium multiflorum); assay: Test A preemergence
Outline: as §1

[18] = test system: barnyardgrass (Echinochloa crus-galli); assay: Test A preemergence
Outline: as §1

[19] = test system: pigweed (Amaranthus retroflexus); assay: Test A preemergence
[20] = test system: ragweed (common ragweed, Ambrosia elatior); assay: Test A preemergence
Outline: as §1

[21] = test system: johnsongrass (Sorghum halepense); assay: Test C preemergence; details: for Plant response rating, Johnsongrass: scale 0 to 100, 0 no effect, 100 complete control
Outline: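 Herbicidal effect, applied preemergence to sown seeds or postemergence to 1- to 4-leaf plants, was scored visually 13 to 15 d after application, 0 to 100 versus controls.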

[22] = 125 g ai/ha, visual rating after approx. 10 d
[23] = 500 g ai/ha, visual injury, approx. 10 d
[24] = 125 g ai/ha, postemergence, visual rating after approx. 10 d, 0 to 100 scale (0 no effect, 100 complete control)
[25] = Postemergence, 500 g ai/ha, 0 to 100 scale where 0 is no effect and 100 is complete control
[26] = 125 g ai/ha, Preemergence, visual injury after approximately 10 d, 0 to 100 scale where 0 is no effect and 100 is complete control
[27] = 500 g ai/ha, preemergence, 0 to 100 scale, 0 = no effect, 100 = complete control

CN1CC(c2cccc(C(F)(F)F)c2)C(C(=O)Nc2cccc(F)c2F)C1=O (stereo not shown) [Compound 636]
85: Plant response rating, Johnsongrass ([21]; 62 g ai/ha) | Plant response rating, Johnsongrass ([21]; 125 g ai/ha)
80: Plant response rating, Corn [10, 25] | Plant response rating, Pigweed [19, 27] | Plant response rating (scale of 0 to 100), Johnsongrass ([21]; 31 g ai/ha, 0 is no effect, 100 is complete control)
50: Plant response rating, Kochia [1, 22] | Plant response rating, Ryegrass, Italian [4, 22] | Plant response rating, Pigweed [7, 23] | Plant response rating, Galium [8, 22] | Plant response rating, Galium [8, 23] | Plant response rating, Kochia [15, 26]
20: Plant response rating, Ragweed [20, 26]
30: Plant response rating, Pigweed [7, 22] | Plant response rating, Ragweed [9, 23]
40: Plant response rating, Pigweed [19, 26]
60: Plant response rating, Kochia [1, 23] | Plant response rating, Wheat [2, 22] | Plant response rating, Wheat [2, 23] | Plant response rating, Blackgrass [6, 24] | Plant response rating, Blackgrass [6, 25]
0: Plant response rating, Ragweed [9, 22] | Plant response rating, Rice [13] | Plant response rating, Sedge, Umbrella [14]
90: Plant response rating, Foxtail, Giant [3, 22] | Plant response rating, Foxtail, Giant [3, 23] | Plant response rating, Barnyardgrass [5, 24] | Plant response rating, Barnyardgrass [5, 25] | Plant response rating, Foxtail, Giant [16, 26] | Plant response rating, Foxtail, Giant [16, 27] | Plant response rating, Ryegrass, Italian [17, 26] | Plant response rating, Ryegrass, Italian [17, 27] | Plant response rating, Barnyardgrass [18, 26] | Plant response rating, Barnyardgrass [18, 27] | Plant response rating, Johnsongrass ([21]; 250 g ai/ha)
100: Plant response rating, Ducksalad [11]
70: Plant response rating, Ryegrass, Italian [4, 23] | Plant response rating, Corn [10, 24] | Plant response rating, Barnyardgrass [12] | Plant response rating, Kochia [15, 27] | Plant response rating, Ragweed [20, 27]
